We go through eight compounds from ChEMBL document CHEMBL1138457, “Design and synthesis of an orally bioavailable and selective peptide epoxyketone proteasome inhibitor (PR-047)” (J Med Chem, 2009).

Converted amounts (≈) assume the structure as drawn. The source made the active and inactive calls. The rule behind the calls is not given here.

The species named for data set [1] is Homo sapiens. Put plainly: Ratio of Kinact to Ki for chymotrypsin-like activity of human 26S proteasome by spectrophotometry. Also on record: unit not given here.
Data set [2] in a line: Solubility in ethanol-PS80 citrate buffer at pH 3.5 by HPLC analysis. The class given is physicochemical.
Data set [3] deals with Mus musculus. The data set can be described thus: Inhibition of chymotrypsin-like activity of 20S proteasome in BALB/c mouse adrenal gland at 10 mg/kg, po after 1 hr. The class given is functional. Also noted: scale not given: the % may be the effect or the level left.
Data set [4] relates to Mus musculus. The data set can be described thus: Inhibition of chymotrypsin-like activity of 20S proteasome in BALB/c mouse adrenal gland at 20 mg/kg, po after 1 hr. The class given is functional. Also noted: scale not given: the % may be the effect or the level left.
The nature of data set [5]: Cytotoxicity against human MESSA cells assessed as cell viability after 72 hrs by CellTiter-Glo luminescent assay. The settings on record: MES-SA. The class given is functional, cell-based. In general terms: ATP-based viability assays read luminescence as a measure of living cells.
Data set [6] is described as follows: Chemical stability in simulated intestinal fluid assessed as compound remaining at 4 uM after 15 mins. Particulars: read-out: Stability. The class given is physicochemical.
Data set [7] can be described thus: Metabolic stability in mouse liver microsomes assessed as extraction ratio at 1 uM. The class given is ADME, Microsome.
Data set [8] is described as follows: Inhibition of chymotrypsin-like activity of human 20S proteasome by spectrofluorimetry.
Data set [9] can be described thus: Inhibition of chymotrypsin-like activity of 20S proteasome in human MOLT4 cells after 1 hr by […]. In kind it is cell-based. The settings on record: MOLT-4, 1 h.
Data set [10] in a line: Cytotoxicity against multidrug resistance transporter expressing doxorubicin resistant human MESSA cells assessed as cell viability after 72 hrs by CellTiter-Glo luminescent assay. The class given is functional, cell-based. Particulars: MES-SA.
Data set [11] can be described thus: Metabolic stability in human liver microsomes assessed as extraction ratio at 1 uM. The class given is ADME, Microsome. (In general: Liver microsomes are vesicles of endoplasmic reticulum, rich in cytochrome P450 enzymes.)
Data set [12] is described as follows: Inhibition of chymotrypsin-like activity of human 20S proteasome beta 5 subunit by proteasome active site ELISA. For orientation: In an ELISA, binding on a coated surface is turned into a signal by an enzyme label.
Data set [13] addresses T1, Proteasome subunit beta type-8 (Homo sapiens, UniProt P28062).
T1 sequence (P28062 whole entry): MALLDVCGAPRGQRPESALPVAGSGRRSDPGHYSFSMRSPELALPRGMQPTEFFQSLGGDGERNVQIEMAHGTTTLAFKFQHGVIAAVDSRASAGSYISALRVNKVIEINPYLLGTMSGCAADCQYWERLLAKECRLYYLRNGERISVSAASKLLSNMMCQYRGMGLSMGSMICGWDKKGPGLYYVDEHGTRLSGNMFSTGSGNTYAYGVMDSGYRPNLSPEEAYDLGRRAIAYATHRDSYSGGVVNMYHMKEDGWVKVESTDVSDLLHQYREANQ
Description: Inhibition of chymotrypsin-like activity of LMP7 immunoproteasome by proteasome active site ELISA

The test system of data set [14] is CT26. Put plainly: Antitumor activity against mouse CT26 cells xenografted in BALB/c mouse assessed as time to achieve significant decrease in tumor volume at 20 mg/kg, po administered 3 days post tumor challenge in weekly qdx2 schedule. The class given is functional, organism-based. Also on record: dose 20 mg/kg.
The nature of data set [15]: Toxicity in po dosed BALB/c mouse xenografted with mouse CT26 cells assessed as maximum tolerated dose. The settings on record: in vivo. The class given is organism-based.
The subject of data set [16] is RL. Put plainly: Antitumor activity against human RL cells xenografted in BNX mouse assessed as time to achieve significant decrease in tumor volume at 20 mg/kg, po administered as weekly qdx2 schedule. In kind it is functional, organism-based. Also on record: dose 20 mg/kg.
The nature of data set [17]: Toxicity in po dosed BNX mouse xenografted with human RL cells assessed as maximum tolerated dose. In kind it is organism-based. The settings on record: in vivo.
Data set [18] deals with Mus musculus. The data set can be described thus: Inhibition of chymotrypsin-like activity of 20S proteasome in BALB/c mouse adrenal gland 40 mg/kg, po after 1 hr. In kind it is functional. Also on record: scale not given: the % may be the effect or the level left.
The subject of data set [19] is CT26. Put plainly: Antitumor activity against mouse CT26 cells xenografted in BALB/c mouse assessed as time to achieve significant decrease in tumor volume at 5 mg/kg, iv administered on day 3 post tumor challenge for weekly qdx2 schedule. The class given is functional.
Data set [20] has as its system Mus musculus. Put plainly: Inhibition of chymotrypsin-like activity of 20S proteasome in BALB/c mouse liver at 40 mg/kg, po after 1 hr. The class given is functional. Also noted: scale not given: the % may be the effect or the level left.
For data set [21], the system named is RL. The data set can be described thus: Antitumor activity against human RL cells xenografted BNX mouse assessed as time to achieve significant decrease in tumor volume at 5 mg/kg, iv administered as weekly qdx2 schedule. The class given is functional.
For data set [22], the species on record is Homo sapiens. Put plainly: Selectivity for chymotrypsin-like activity over trypsin-like activity of human 20S proteasome.
Data set [23] is described as follows: Chemical stability in simulated gastric fluid assessed as compound remaining at 4 uM after 15 mins. Particulars: read-out: Stability. In kind it is physicochemical.
For data set [24], the species on record is Homo sapiens. The data set can be described thus: Selectivity for chymotrypsin-like activity over caspase-like activity of human 20S proteasome.
The test system of data set [25] is Mus musculus. Put plainly: Inhibition of chymotrypsin-like activity of 20S proteasome in BALB/c mouse blood at 40 mg/kg, po after 1 hr. In kind it is functional. Also noted: scale not given: the % may be the effect or the level left.
A short description of data set [26]: Toxicity in iv dosed BALB/c mouse xenografted with mouse CT26 cells assessed as maximum tolerated dose. In kind it is organism-based. The settings on record: in vivo.

In the case of `COC[C@H](NC(=O)c1cc(C)on1)C(=O)N[C@@H](COC)C(=O)N[C@@H](CC(C)C)C(=O)[C@@]1(C)CO1`, the Ratio in the data set filed under Homo sapiens [1] was 31800. The solubility – broadly, the dissolved amount per volume that the medium holds – in data set [2] was found to be 5880 µg/mL (≈ 12200 µM). Moreover, the Activity turned out to be 21% with Mus musculus [3] and 9% with Mus musculus [4]. In addition, the IC50 (in general, the concentration at which inhibition is half-maximal) in [5] was 22 nM; in data set [8], 11 nM; in data set [9], 48 nM; in data set [10], 145 nM; in data set [12], 17 nM; in [13], 238 nM. In addition, the remaining at 0.25 h, 4 µM in data set [6] was 70%. Moreover, the results for the hepatic extraction ratio at 1 µM in data set [7] and in data set [11] were 0.67 dimensionless ratio and 0.54 dimensionless ratio, respectively.

As to `Cc1cc(C(=O)N[C@@H](CC(C)C)C(=O)N[C@@H](Cc2ccccc2)C(=O)N[C@@H](CC(C)C)C(=O)[C@@]2(C)CO2)no1`, the Ratio in the data set listed under Homo sapiens [1] stood at 50900. Further, the solubility in [2] is 60 µg/mL (≈ 111 µM). Further, the IC50 in [5] amounted to 28 nM; in data set [8], 1.8 nM; in data set [9] it was 17 nM; in [10] it was 47 nM. In addition, the remaining at 0.25 h, 4 µM in data set [6] was 60%.

As to `CCOc1cc(C(=O)N[C@@H](COC)C(=O)N[C@@H](COC)C(=O)N[C@@H](Cc2ccccc2)C(=O)[C@@]2(C)CO2)no1`, the Activity in the data set on Mus musculus [3] is 3%. Moreover, the result in the data set with CT26 [14] and in the data set with RL [16] was inactive. The IC50 in data set [5] was found to be 4.3 nM; in data set [8] it was 1.4 nM; in [9] it was 3 nM; in [10], 54 nM; in data set [12] it was 3.7 nM; in data set [13], 5 nM. The remaining at 0.25 h, 4 µM in data set [6] is 85%. The maximum tolerated dose (MTD) in [15] and in [17] was 20 mg/kg each time. In addition, the hepatic extraction ratio at 1 µM in data set [7] and in data set [11] was 0.77 dimensionless ratio each time.

Take `COC[C@H](NC(=O)c1cc(C)on1)C(=O)N[C@@H](Cc1ccccc1)C(=O)N[C@@H](CC(C)C)C(=O)[C@@]1(C)CO1`: the Ratio in the data set listed under Homo sapiens [1] amounted to 58600. In addition, in [2], the solubility was 750 µg/mL (≈ 1420 µM). The Activity stood at 33% in the data set on Mus musculus [4] and 9% in the data set on Mus musculus [18]. Moreover, the IC50 in data set [5] came out at 40 nM; in data set [8] it was 9.3 nM; in data set [9] it was 36 nM; in data set [10] it was 75 nM. Moreover, the remaining at 0.25 h, 4 µM in data set [6] was 90%. Besides, the hepatic extraction ratio at 1 µM is 0.96 dimensionless ratio in data set [7] and 0.91 dimensionless ratio in data set [11].

Turning to `CC(C)C[C@H](NC(=O)[C@H](CCc1ccccc1)NC(=O)CN1CCOCC1)C(=O)N[C@@H](Cc1ccccc1)C(=O)N[C@@H](CC(C)C)C(=O)[C@@]1(C)CO1` [CARFILZOMIB], the Activity stood at 26 days in the data set with CT26 [19]; 109% in the data set on Mus musculus [20]; 35 days in the data set with RL [21]; 77% in the data set on Mus musculus [25]; 83% with Mus musculus [18]. Also, the fold change (FC) in the data set filed under Homo sapiens [22] and in the data set filed under Homo sapiens [24] was greater than 100 throughout. Besides, the results for the remaining at 0.25 h, 4 µM in data set [23] and in data set [6] were 15% and less than 5%, respectively. The IC50 in data set [5] worked out at 18 nM; in [8], 5.7 nM; in data set [9], 5.1 nM; in data set [10] it was 413 nM; in data set [12] it was 5.2 nM. Moreover, the MTD (as a rule, the highest dose tested that stayed within the study's limit of toxicity) in data set [26] is 5 mg/kg.

In the case of `CC(C)C[C@H](NC(=O)c1cc(CN2CCOCC2)on1)C(=O)N[C@@H](Cc1ccccc1)C(=O)N[C@@H](CC(C)C)C(=O)[C@@]1(C)CO1`, the Ratio in the data set listed under Homo sapiens [1] was determined as 28300. In data set [2], this compound had a solubility of 1480 µg/mL (≈ 2370 µM). For the same compound, the IC50 in [5] stood at 22 nM; in data set [8] it was 4.1 nM; in data set [9], 11 nM; in data set [10], 70 nM. Besides, the remaining at 0.25 h, 4 µM in data set [6] was 60%. The compound further had an Activity with Mus musculus [18] of 29%.

On to `CC(C)C[C@H](NC(=O)CN1CCOCC1)C(=O)N[C@@H](Cc1ccccc1)C(=O)N[C@@H](CC(C)C)C(=O)[C@@]1(C)CO1`, for which the Activity is given as 22% in the data set on Mus musculus [20], 37% in the data set with Mus musculus [25] and 82% in the data set with Mus musculus [18]. In addition, in the data set filed under Homo sapiens [1], the Ratio turned out to be 7900. Moreover, the remaining at 0.25 h, 4 µM in data set [23] was 90%; in [6], 45%. For the same compound, the IC50 stood at 35 nM in [5], 57 nM in data set [8], 45 nM in [9] and 308 nM in data set [10]. Moreover, the hepatic extraction ratio at 1 µM in data set [7] (read-out: ERH) was 0.95.

`COC[C@H](NC(=O)c1cc(C)on1)C(=O)N[C@@H](C)C(=O)N[C@@H](CC(C)C)C(=O)[C@@]1(C)CO1` returned a solubility in data set [2] of 1240 µg/mL (≈ 2740 µM). The Activity in the data set on Mus musculus [4] was 8%. Also, the IC50 in [5] was 28 nM; in data set [8], 19 nM; in data set [9], 57 nM; in data set [10], 276 nM. For the same compound, the remaining at 0.25 h, 4 µM in data set [6] is 100%. Besides, the hepatic extraction ratio at 1 µM worked out at 0.48 dimensionless ratio in [7] and 0.28 dimensionless ratio in data set [11].
